This note sets out measurements from PMC8317200 (Journal of medicinal chemistry, 2020).

For one test, the target named is T1, FGF14:Nav1.6 complex (Homo sapiens, UniProt Q92915).
T1 sequence (Q92915 1-252 isoform Q92915-2): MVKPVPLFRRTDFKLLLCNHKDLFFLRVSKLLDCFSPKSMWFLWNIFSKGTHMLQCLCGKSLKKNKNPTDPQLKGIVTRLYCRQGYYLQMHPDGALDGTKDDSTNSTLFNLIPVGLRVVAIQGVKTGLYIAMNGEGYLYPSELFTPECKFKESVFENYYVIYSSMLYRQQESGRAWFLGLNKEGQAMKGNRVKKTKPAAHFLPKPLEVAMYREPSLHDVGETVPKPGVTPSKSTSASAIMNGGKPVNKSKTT
Description: Split-luciferase complementation assay. The class given is cell-based. The settings on record: for activity at 50 µM: HEK293, 1 h, read-out: RLVs (%); for Inhibitory activity against FGF14:Nav1.6 complex assembly (in words): 50 μM screening.

The next test has as its target T2, FGF14 (Homo sapiens, UniProt Q92915).
T2 sequence (Q92915 64-252 isoform Q92915-2): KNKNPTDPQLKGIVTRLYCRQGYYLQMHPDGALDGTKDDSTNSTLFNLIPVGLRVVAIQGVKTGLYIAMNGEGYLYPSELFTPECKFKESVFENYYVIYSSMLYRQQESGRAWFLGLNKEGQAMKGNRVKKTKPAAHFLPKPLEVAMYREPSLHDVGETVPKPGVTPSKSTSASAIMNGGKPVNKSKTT
Description: Surface plasmon resonance. The class given is binding. The settings on record: for koff: read-out: koff FGF14; for kon: read-out: kon FGF14. (In general: In SPR one partner is held on a chip, and binding of the other changes the refractive index at the surface.)

The target of another test is T3, CLuc-FGF14-1b (human) (UniProt Q92915).
T3 sequence: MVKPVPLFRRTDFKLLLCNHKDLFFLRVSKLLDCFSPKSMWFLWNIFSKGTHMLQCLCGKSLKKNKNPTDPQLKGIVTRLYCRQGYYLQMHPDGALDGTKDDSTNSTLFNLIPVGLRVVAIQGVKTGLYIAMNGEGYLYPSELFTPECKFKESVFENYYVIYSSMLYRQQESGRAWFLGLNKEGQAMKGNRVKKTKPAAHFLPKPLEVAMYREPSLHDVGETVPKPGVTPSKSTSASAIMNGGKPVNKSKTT
In words: split reporter.

Residues, ends and D or L forms follow the SMILES beside them. *: point of attachment. Adamantane1carbonyl = O=C(C12CC3CC(CC(C3)C1)C2)*; NH(1-Adamantyl) = C1C2CC3CC1CC(N*)(C2)C3; Benzoyl(4-F) = O=C(c1ccc(F)cc1)*; Pyrrolidide = C1CCN(*)C1; Cbz = O=C(OCc1ccccc1)*; OcHex = C1CCC(O*)CC1; Bz = O=C(c1ccccc1)*; OtBu = CC(C)(C)O*; OAll = C=CCO*; X1 = C#CCO* A value given as a limit tells only on which side of the number the result lay.

For the molecule `COC(=O)CC[C@H](NC(=O)[C@H](CC(C)C)NC(=O)[C@@H]1CCCN1C(=O)OCc1ccccc1)C(=O)OC(C)(C)C` [Compound 30, 1-(tert-Butyl) 5-methyl ((benzyloxy)carbonyl)-L-prolyl-L-leucyl-L-glutamate] (Cbz-Pro-Leu-Glu(OMe)-OtBu), the activity at 50 µM at FGF14:Nav1.6 complex was more than 100%.

On to `C=CCOC(=O)[C@@H](NC(=O)[C@H](CCC(=O)OC(C)(C)C)NC(=O)[C@H](CC(C)C)NC(=O)[C@@H]1CCCN1C(=O)OCc1ccccc1)C(C)C` [Compound 19k, Benzyl (S)-2-(((S)-1-(((S)-1-(((S)-1-(allyloxy)-3-methyl-1-oxobutan-2-yl)amino)-5-(tert-butoxy)-1,5-dioxopentan-2-yl)amino)-4-methyl-1-oxopentan-2-yl)carbamoyl)pyrrolidine-1-carboxylate] (Cbz-PLE(OtBu)V-OAll), for which the “Binding by PTS and SPR (in words)” value at FGF14 (PTS and SPR) is recorded as “negligible binding”.

Consider `COC(=O)[C@@H](NC(=O)[C@H](CC(C)C)NC(=O)[C@@H]1CCCN1C(=O)OCc1ccccc1)C(C)C` [Compound 32, Benzyl (S)-2-(((S)-1-(((S)-1-methoxy-3-methyl-1-oxobutan-2-yl)amino)-4-methyl-1-oxopentan-2-yl)carbamoyl)pyrrolidine-1-carboxylate] (Cbz-Pro-Leu-Val-OMe), for which, on FGF14:Nav1.6 complex, the activity at 50 µM was more than 100%.

For `CC(C)C[C@H](NC(=O)[C@@H]1CCCN1C(=O)OCc1ccccc1)C(=O)N[C@H](C(N)=O)C(C)C` [Compound 31, Benzyl (S)-2-(((S)-1-(((S)-1-amino-3-methyl-1-oxobutan-2-yl)amino)-4-methyl-1-oxopentan-2-yl)carbamoyl)pyrrolidine-1-carboxylate] (Cbz-Pro-Leu-Val-NH2), the activity at 50 µM at FGF14:Nav1.6 complex is more than 100%.

As for `COC(=O)[C@@H](NC(=O)[C@H](CCC(=O)OC(C)(C)C)NC(=O)[C@H](CC(C)C)NC(=O)[C@@H]1CCCN1C(C)=O)C(C)C` [Compound 21c, tert-Butyl (S)-4-((S)-2-((S)-1-acetylpyrrolidine-2-carboxamido)-4-methylpentanamido)-5-(((S)-1-methoxy-3-methyl-1-oxobutan-2-yl)amino)-5-oxopentanoate] (Ac-PLE(OtBu)V-OMe), the “Inhibitory activity against FGF14:Nav1.6 complex assembly (in words)” value (shortened to “Inhibitory activity”) at FGF14:Nav1.6 complex is listed as “markedly reduced inhibitory activity”.

Regarding `CC(C)C[C@H](NC(=O)[C@@H]1CCCN1C(=O)c1ccc(F)cc1)C(=O)N[C@@H](CCC(=O)OC(C)(C)C)C(=O)N[C@H](C(N)=O)C(C)C` [Compound 13f, tert-Butyl (S)-5-(((S)-1-amino-3-methyl-1-oxobutan-2-yl)amino)-4-((S)-2-((S)-1-(4-fluorobenzoyl)pyrrolidine-2-carboxamido)-4-methylpentanamido)-5-oxopentanoate] ({Benzoyl(4-F)}-PLE(OtBu)V-NH2), on FGF14:Nav1.6 complex, the “Inhibitory activity” value was “did not show any inhibitory activity” and the activity at 50 µM was found to be 123 ± 3%.

Take `CC(C)C[C@H](NC(=O)[C@@H]1CCCN1C(=O)C12CC3CC(CC(C3)C1)C2)C(=O)N[C@@H](CCC(=O)OC(C)(C)C)C(=O)N[C@H](C(=O)OC1CCCCC1)C(C)C` [Compound 23e, tert-Butyl (4S)-4-((2S)-2-((2S)-1-((1R,3R)-adamantane-1-carbonyl)pyrrolidine-2-carboxamido)-4-methylpentanamido)-5-(((S)-1-(cyclohexyloxy)-3-methyl-1-oxobutan-2-yl)amino)-5-oxopentanoate] (Adamantane1carbonyl-PLE(OtBu)V-OcHex): at FGF14, the koff (usually the rate constant with which the complex falls apart) is 0.0139 s⁻¹ and the on-rate (kon) – broadly, a measure of how fast the partners come together – was 7350 M⁻¹ s⁻¹.

For `CC(C)C[C@H](NC(=O)[C@@H]1CCCN1C(=O)C12CC3CC(CC(C3)C1)C2)C(=O)N[C@@H](CCC(=O)OC(C)(C)C)C(=O)N[C@H](C(=O)OC(C)(C)C)C(C)C` [Compound 23d, tert-Butyl (4S)-4-((2S)-2-((2S)-1-((1R,3R)-adamantane-1-carbonyl)pyrrolidine-2-carboxamido)-4-methylpentanamido)-5-(((S)-1-(tert-butoxy)-3-methyl-1-oxobutan-2-yl)amino)-5-oxopentanoate] (Adamantane1carbonyl-PLE(OtBu)V-OtBu), on FGF14, the dissociation rate constant (koff) was 0.0058 s⁻¹ and the kon was found to be 1620 M⁻¹ s⁻¹.

Turning to `CC(C)C[C@H](NC(=O)[C@@H]1CCCN1C(=O)c1ccccc1)C(=O)N[C@@H](CCC(=O)OC(C)(C)C)C(=O)N[C@H](C(N)=O)C(C)C` [Compound 13a, tert-Butyl (S)-5-(((S)-1-amino-3-methyl-1-oxobutan-2-yl)amino)-4-((S)-2-((S)-1-benzoylpyrrolidine-2-carboxamido)-4-methylpentanamido)-5-oxopentanoate] (Bz-PLE(OtBu)V-NH2), the “Inhibitory activity” value on FGF14:Nav1.6 complex is “did not show any inhibitory activity”.

Consider `CC(C)C[C@H](NC(=O)[C@@H]1CCCN1C(=O)OCc1ccccc1)C(=O)N[C@@H](CCC(=O)OC(C)(C)C)C(=O)N[C@H](C(=O)NC12CC3CC(CC(C3)C1)C2)C(C)C` [Compound 19h, Benzyl (S)-2-(((S)-1-(((S)-1-(((S)-1-(((3R,5R,7R)-adamantan-1-yl)amino)-3-methyl-1-oxobutan-2-yl)amino)-5-(tert-butoxy)-1,5-dioxopentan-2-yl)amino)-4-methyl-1-oxopentan-2-yl)carbamoyl)pyrrolidine-1-carboxylate] (Cbz-PLE(OtBu)V-{NH(1-Adamantyl)}), for which the “Inhibitory activity” value on FGF14:Nav1.6 complex was “minimal inhibitory activity”.

As for `C#CCOC(=O)[C@@H](NC(=O)[C@H](CCC(=O)OC(C)(C)C)NC(=O)[C@H](CC(C)C)NC(=O)[C@@H]1CCCN1C(=O)C12CC3CC(CC(C3)C1)C2)C(C)C` [Compound 23b, tert-Butyl (4S)-4-((2S)-2-((2S)-1-((1R,3R)-adamantane-1-carbonyl)pyrrolidine-2-carboxamido)-4-methylpentanamido)-5-(((S)-3-methyl-1-oxo-1-(prop-2-yn-1-yloxy)butan-2-yl)amino)-5-oxopentanoate] (Adamantane1carbonyl-PLE(OtBu)V-X1), the on-rate constant (kon) at FGF14 stood at 25800 M⁻¹ s⁻¹.

Regarding `CC(C)C[C@H](NC(=O)[C@@H]1CCCN1C(=O)OCc1ccccc1)C(=O)N[C@@H](CCC(=O)OC(C)(C)C)C(=O)N[C@H](C(=O)N1CCCC1)C(C)C` [Compound 19e, Benzyl (S)-2-(((S)-1-(((S)-5-(tert-butoxy)-1-(((S)-3-methyl-1-oxo-1-(pyrrolidin-1-yl)butan-2-yl)amino)-1,5-dioxopentan-2-yl)amino)-4-methyl-1-oxopentan-2-yl)carbamoyl)pyrrolidine-1-carboxylate] (Cbz-PLE(OtBu)V-Pyrrolidide), on FGF14, the koff was found to be 0.000991 s⁻¹ and the on-rate (kon) came to 461 M⁻¹ s⁻¹.

As for Adamantane1carbonyl-PLE(OtBu)V-{O‑cyclohexyl} [compound 23e], in the test with CLuc-FGF14-1b (human), the concentration for half-maximal inhibition (IC50) (usually the concentration that gives 50% inhibition) stood at 35.3 µM and the efficacy (percent inhibition at the bottom plateau) was determined as 69.9%.

B1: compound 23d (peptide)
peptide: Adamantane1carbonyl-PLE(OtBu)V-OtBu
SMILES: CC(C)C[C@H](NC(=O)[C@@H]1CCCN1C(=O)C12CC3CC(CC(C3)C1)C2)C(=O)N[C@@H](CCC(=O)OC(C)(C)C)C(=O)N[C@H](C(=O)OC(C)(C)C)C(C)C
In the test with CLuc-FGF14-1b (human), B1 gave an IC50 of 33.9 µM and an efficacy (percent inhibition at the bottom plateau) of 92.1%.

As for Adamantane1carbonyl-PLE(OtBu)V-{O‑propargyl} [compound 23b], in the test with CLuc-FGF14-1b (human), the concentration for half-maximal inhibition (IC50) amounted to 13.8 µM and the efficacy (percent inhibition at the bottom plateau) came to 96.6%.

In the test with CLuc-FGF14-1b (human), Adamantane1carbonyl-PLE(OtBu)V-{O‑propyl} [compound 23g] registered an IC50 of 22.5 µM and an efficacy (percent inhibition at the bottom plateau) of 83.3%.

B2: compound 21a (peptide)
peptide: Adamantane1carbonyl-PLE(OtBu)V-OMe
SMILES: COC(=O)[C@@H](NC(=O)[C@H](CCC(=O)OC(C)(C)C)NC(=O)[C@H](CC(C)C)NC(=O)[C@@H]1CCCN1C(=O)C12CC3CC(CC(C3)C1)C2)C(C)C
In the test with CLuc-FGF14-1b (human), B2 displayed an IC50 of 20.4 µM and an efficacy (percent inhibition at the bottom plateau) of 96.1%.

B3: compound 23f (peptide)
peptide: Adamantane1carbonyl-PLE(OtBu)V-OEt
SMILES: CCOC(=O)[C@@H](NC(=O)[C@H](CCC(=O)OC(C)(C)C)NC(=O)[C@H](CC(C)C)NC(=O)[C@@H]1CCCN1C(=O)C12CC3CC(CC(C3)C1)C2)C(C)C
In the test with CLuc-FGF14-1b (human), B3 registered a half-maximal inhibitory concentration (IC50) of 13.3 µM and an efficacy (percent inhibition at the bottom plateau) of 82.3%.

In the test with CLuc-FGF14-1b (human), Adamantane1carbonyl-PLE(OtBu)V-{O‑allyl} [compound 23a] returned an IC50 of 11.5 µM and an efficacy (percent inhibition at the bottom plateau) of 95.5%.
